Columns and labels:
[1] = target: RAC-alpha serine/threonine-protein kinase (Homo sapiens, UniProt P31749); assay: Selectivity interaction (Kinase screening (Nanosyn)) EUB0000604a AKT1
[2] = target: Mitogen-activated protein kinase 6 (Homo sapiens) (UniProt Q16659); assay: Selectivity interaction (Ambit KINOMEscan and KiNATiv profiling in Jurkat cells) EUB0000090b MAPK6; assay type: cell-based; details: at 1 µM
[3] = target: T1, Kinase suppressor of Ras 1 (Homo sapiens) (UniProt Q8IVT5); assay: Selectivity interaction (ActivX KiNativ screen (kinase selectivity in THP-1 cell lysates)) EUB0000639a KSR1; assay type: subcellular; details: lysate
T1 sequence (whole entry): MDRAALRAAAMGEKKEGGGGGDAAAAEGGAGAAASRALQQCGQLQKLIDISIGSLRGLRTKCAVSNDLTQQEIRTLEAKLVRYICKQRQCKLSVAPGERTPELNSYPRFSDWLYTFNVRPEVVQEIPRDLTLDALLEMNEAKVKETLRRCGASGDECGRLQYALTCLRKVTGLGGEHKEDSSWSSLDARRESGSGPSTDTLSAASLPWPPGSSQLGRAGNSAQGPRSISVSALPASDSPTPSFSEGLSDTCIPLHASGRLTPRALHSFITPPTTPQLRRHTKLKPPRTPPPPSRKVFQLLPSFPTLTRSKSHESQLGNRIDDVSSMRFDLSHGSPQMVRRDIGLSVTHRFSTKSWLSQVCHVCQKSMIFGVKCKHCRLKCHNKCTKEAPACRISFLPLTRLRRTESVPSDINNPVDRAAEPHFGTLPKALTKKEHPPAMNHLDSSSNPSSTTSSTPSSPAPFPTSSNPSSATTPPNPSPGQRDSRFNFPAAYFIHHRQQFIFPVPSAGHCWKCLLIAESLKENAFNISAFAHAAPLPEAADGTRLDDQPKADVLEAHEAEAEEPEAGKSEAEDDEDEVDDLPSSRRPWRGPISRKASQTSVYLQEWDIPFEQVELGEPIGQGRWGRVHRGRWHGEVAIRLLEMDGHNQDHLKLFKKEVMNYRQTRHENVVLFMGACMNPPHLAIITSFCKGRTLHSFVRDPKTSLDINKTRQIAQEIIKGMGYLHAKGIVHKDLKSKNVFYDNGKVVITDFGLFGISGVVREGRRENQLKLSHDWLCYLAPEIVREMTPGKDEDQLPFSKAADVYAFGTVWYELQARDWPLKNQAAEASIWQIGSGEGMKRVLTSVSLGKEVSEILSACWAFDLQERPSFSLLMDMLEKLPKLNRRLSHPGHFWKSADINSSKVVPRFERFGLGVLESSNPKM

[4] = target: T2, Ephrin type-A receptor 3 (Homo sapiens) (UniProt P29320); details: at 10 µM
T2 sequence (whole entry): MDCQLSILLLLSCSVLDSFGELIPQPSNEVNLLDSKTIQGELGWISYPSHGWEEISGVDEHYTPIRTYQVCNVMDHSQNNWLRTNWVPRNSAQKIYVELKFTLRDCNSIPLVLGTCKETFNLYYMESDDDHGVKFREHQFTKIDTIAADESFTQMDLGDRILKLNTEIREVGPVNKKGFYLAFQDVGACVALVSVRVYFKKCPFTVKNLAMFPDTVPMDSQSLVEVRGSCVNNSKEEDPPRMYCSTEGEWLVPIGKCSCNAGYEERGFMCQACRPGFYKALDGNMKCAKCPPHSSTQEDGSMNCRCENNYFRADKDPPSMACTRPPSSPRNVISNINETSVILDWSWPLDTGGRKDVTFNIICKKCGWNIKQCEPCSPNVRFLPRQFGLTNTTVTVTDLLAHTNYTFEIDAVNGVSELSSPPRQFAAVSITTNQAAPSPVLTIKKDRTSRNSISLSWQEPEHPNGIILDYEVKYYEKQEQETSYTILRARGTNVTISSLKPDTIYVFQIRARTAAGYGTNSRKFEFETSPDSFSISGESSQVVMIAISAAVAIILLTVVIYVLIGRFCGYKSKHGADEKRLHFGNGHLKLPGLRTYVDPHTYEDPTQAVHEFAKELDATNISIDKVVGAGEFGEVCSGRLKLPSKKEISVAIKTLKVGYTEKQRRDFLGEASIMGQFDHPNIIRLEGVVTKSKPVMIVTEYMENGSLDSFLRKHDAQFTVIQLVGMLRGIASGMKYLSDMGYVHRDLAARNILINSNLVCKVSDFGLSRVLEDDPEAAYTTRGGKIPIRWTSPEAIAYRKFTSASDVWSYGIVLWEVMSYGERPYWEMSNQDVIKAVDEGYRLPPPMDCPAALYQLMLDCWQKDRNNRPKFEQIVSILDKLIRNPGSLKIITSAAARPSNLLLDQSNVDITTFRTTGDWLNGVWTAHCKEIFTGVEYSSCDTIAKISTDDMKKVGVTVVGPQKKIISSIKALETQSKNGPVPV

[5] = target: Ribosomal protein S6 kinase alpha-5 (Homo sapiens) (UniProt O75582); assay: Selectivity interaction (KinomeScan (DiscoverX)) EUB0001079a RPS6KA5; details: at 1 µM
Sequence of Ribosomal protein S6 kinase alpha-5 (Homo sapiens) (O75582 whole entry, looked up): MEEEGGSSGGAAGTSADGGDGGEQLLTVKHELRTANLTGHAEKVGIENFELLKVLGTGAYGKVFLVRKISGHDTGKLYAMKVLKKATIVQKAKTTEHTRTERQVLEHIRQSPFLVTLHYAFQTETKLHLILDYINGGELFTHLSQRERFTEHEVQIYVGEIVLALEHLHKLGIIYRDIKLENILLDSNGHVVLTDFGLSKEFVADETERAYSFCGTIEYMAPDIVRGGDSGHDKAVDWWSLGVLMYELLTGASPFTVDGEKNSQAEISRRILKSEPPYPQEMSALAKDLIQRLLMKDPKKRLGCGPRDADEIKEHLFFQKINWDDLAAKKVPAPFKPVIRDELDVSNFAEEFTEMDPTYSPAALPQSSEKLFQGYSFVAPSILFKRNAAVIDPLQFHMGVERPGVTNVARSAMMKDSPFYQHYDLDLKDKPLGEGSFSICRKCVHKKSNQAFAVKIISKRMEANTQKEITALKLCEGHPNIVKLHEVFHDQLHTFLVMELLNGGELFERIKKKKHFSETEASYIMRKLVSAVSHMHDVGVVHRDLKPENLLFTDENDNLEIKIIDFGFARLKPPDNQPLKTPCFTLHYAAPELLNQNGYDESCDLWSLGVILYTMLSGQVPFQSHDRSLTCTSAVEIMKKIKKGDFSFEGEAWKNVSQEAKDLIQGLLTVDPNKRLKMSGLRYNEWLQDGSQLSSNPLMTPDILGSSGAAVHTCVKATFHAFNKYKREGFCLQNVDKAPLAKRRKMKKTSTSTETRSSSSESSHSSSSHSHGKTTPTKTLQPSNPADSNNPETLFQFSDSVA

[6] = target: T3, Serine/threonine-protein kinase MAK (Homo sapiens) (UniProt P20794); assay: Selectivity interaction (KinomeScan (DiscoverX)) EUB0000092b MAK; details: at 10 µM
T3 sequence (whole entry): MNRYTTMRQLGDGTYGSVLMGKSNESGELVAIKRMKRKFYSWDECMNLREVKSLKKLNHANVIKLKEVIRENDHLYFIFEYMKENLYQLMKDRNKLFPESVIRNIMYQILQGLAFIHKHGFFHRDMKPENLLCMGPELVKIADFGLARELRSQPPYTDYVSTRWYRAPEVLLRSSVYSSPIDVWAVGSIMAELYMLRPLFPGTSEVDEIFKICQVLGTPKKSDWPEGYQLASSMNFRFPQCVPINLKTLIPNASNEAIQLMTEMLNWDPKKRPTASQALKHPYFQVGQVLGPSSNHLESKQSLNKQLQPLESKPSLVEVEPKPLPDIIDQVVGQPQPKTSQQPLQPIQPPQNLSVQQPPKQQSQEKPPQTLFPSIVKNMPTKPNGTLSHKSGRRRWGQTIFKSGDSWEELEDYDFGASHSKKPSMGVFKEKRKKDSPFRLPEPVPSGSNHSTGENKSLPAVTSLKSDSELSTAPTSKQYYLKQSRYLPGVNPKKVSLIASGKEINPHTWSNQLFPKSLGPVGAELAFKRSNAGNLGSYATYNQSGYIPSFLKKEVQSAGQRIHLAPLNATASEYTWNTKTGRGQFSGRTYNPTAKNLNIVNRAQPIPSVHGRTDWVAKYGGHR

[7] = target: Mitogen-activated protein kinase kinase kinase kinase 5 (Homo sapiens) (UniProt Q9Y4K4); assay: Selectivity interaction (ActivX KiNativ screen (ex vivo kinase selectivity in human PBMCs)) EUB0001619a MAP4K5; assay type: cell-based; details: PBMC, at 1 µM
Sequence of Mitogen-activated protein kinase kinase kinase kinase 5 (Homo sapiens) (Q9Y4K4 whole entry, looked up): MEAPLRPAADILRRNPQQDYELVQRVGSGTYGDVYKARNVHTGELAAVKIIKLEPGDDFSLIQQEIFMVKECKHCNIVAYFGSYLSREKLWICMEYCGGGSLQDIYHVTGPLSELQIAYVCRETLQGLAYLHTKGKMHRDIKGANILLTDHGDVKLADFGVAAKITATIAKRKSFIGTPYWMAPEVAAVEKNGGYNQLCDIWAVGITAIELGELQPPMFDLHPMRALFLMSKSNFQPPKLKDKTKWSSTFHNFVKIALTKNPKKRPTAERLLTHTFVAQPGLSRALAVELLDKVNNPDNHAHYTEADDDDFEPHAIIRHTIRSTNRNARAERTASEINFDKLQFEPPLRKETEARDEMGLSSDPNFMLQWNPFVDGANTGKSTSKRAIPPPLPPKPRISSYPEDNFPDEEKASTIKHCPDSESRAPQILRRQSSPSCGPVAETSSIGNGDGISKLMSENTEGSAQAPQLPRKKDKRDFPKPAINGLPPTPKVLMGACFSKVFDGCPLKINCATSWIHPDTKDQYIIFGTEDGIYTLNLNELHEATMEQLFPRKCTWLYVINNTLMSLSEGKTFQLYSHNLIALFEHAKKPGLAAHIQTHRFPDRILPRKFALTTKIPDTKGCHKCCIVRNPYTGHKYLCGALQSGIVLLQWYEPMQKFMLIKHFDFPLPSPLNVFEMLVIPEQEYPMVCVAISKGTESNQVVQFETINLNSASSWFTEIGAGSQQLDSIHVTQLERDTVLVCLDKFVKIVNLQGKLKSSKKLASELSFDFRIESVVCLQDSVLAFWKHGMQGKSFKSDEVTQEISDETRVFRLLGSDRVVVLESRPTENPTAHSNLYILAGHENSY

Sequence of RAC-alpha serine/threonine-protein kinase (P31749 whole entry): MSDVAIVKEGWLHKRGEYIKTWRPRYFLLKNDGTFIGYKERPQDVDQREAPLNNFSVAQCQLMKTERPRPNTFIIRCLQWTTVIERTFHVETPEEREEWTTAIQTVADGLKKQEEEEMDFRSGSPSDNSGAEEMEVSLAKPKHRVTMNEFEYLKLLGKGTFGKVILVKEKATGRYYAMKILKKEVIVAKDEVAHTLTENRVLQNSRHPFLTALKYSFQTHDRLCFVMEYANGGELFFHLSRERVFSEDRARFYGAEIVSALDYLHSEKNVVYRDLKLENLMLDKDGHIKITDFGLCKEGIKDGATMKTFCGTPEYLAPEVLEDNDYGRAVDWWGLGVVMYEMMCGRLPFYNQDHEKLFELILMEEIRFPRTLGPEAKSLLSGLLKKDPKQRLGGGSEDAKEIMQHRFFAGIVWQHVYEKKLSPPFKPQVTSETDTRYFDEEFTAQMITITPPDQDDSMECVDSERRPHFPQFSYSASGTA
Sequence of Mitogen-activated protein kinase 6 (Homo sapiens) (Q16659 whole entry): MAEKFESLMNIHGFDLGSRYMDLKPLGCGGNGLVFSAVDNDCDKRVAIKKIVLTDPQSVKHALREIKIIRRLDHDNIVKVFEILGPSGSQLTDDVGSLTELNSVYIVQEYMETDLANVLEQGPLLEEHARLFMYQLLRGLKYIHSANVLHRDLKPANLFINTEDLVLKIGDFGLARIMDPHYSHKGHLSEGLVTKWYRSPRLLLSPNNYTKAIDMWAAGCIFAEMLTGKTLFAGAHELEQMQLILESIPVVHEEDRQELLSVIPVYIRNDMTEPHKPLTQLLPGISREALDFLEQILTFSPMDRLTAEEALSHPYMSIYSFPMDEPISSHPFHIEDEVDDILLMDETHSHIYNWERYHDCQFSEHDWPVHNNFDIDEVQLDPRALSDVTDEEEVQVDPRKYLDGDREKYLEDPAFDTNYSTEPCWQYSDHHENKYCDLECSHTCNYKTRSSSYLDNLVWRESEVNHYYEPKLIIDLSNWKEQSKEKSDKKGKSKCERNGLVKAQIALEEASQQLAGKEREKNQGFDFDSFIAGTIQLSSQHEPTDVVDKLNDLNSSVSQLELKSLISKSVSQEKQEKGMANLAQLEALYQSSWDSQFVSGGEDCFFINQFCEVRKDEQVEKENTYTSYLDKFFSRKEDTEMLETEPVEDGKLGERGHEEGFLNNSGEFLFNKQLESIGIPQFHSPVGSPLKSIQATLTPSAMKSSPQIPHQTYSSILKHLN

Cc1cnc(Nc2ccc(F)cc2Cl)nc1-c1c[nH]c(C(=O)N[C@H](CO)c2cccc(Cl)c2)c1
% of inhibition [1]: 0%

CN(C)C/C=C/C(=O)Nc1ccc(C(=O)N2CCCC(Nc3ncc(Cl)c(-c4c[nH]c5ccccc45)n3)C2)cc1 (stereo unspecified)
% of control [2]: 40%

CC[C@@H]1[C@H](F)C(=O)N[C@@H]1COc1nccc2cc(C(N)=O)c(OC)cc12 [ZIMLOVISERTIB]
% of inhibition ([3]; at 0.01 µM): 2.4%
% of inhibition ([3]; at 0.04 µM): -6.6%
% of inhibition ([3]; at 0.2 µM): -8.6%
% of inhibition ([3]; at 1 µM): -32.8%
% of inhibition ([3]; at 5 µM): -57.9%

CCN(CC)CCCCNc1ncc2cc(-c3cc(OC)cc(OC)c3)c(NC(=O)NC(C)(C)C)nc2n1
% of control [4]: 100%

Nc1cnc(N2CCc3cc(S(=O)(=O)Nc4c(F)cc(Cl)cc4F)cc(N4CCCC4=O)c32)nc1 [TP-020n]
% of control [5]: 95%

CCC(=O)N1CCN(c2ccc(-n3c(=O)ccc4cnc5ccc(-c6cnc7ccccc7c6)cc5c43)cc2C(F)(F)F)CC1
% of control [6]: 68%

N#Cc1cccc(-c2c[nH]c3ncnc(N4CCOCC4)c23)c1
% of inhibition [7]: 13%
